Test results: paper PMC9317316, “Synthesis and Evaluation of Some New 4H-Pyran Derivatives as Antioxidant, Antibacterial and Anti-HCT-116 Cells of CRC, with Molecular Docking, Antiproliferative, Apoptotic and ADME Investigations” (Pharmaceuticals, 2022)
Where “and” joins values, the source holds several entries; their conditions need not be identical. Equal entries are not always repeated.

Legend:
[1] = test system: P. aeruginosa (ATCC 27853); test: Antibacterial viability (CFU) assay, IC50; format: cell-based; conditions: Pseudomonas aeruginosa, ATCC27853
Procedure, shortened: (§1)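 IC50 values come from residual colony counts versus initial inoculum: cells at 2 ×10^7 CFU/mL in sterile BHI incubated with compound under shaking, 60 min, 37 °C, then plated for 24 h. Zone assays used agar diffusion with ampicillin (10 µg/well) control.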

S. enteric (ATCC 43972) = test: Antibacterial viability (CFU) assay, IC50; format: cell-based; conditions: read-out: IC50
Procedure, shortened: as §1

S. aureus (ATCC 25923) [2] = test: Antibacterial viability (CFU) assay, IC50; format: cell-based; conditions: Staphylococcus aureus, ATCC25923
Procedure, shortened: as §1

B. cereus (ATCC 14579) [3] = test: Antibacterial viability (CFU) assay, IC50; format: cell-based; conditions: Bacillus cereus, ATCC14579
Procedure, shortened: as §1

[4] = test system: S. epidermidis (ATCC 14990); test: Antibacterial viability (CFU) assay, IC50; format: cell-based; conditions: Staphylococcus epidermidis, ATCC14990
Procedure, shortened: as §1

[5] = test system: K. pneumonia (ATCC 700603); test: Antibacterial viability (CFU) assay, IC50; format: cell-based; conditions: Klebsiella pneumoniae, ATCC700603
Procedure, shortened: as §1

E. faecalis (ATCC 29122) [6] = test: Antibacterial viability (CFU) assay, IC50; format: cell-based; conditions: Enterococcus faecalis, ATCC29122
Procedure, shortened: as §1

E. coli (ATCC 25966) [7] = test: Antibacterial viability (CFU) assay, IC50; format: cell-based; conditions: Escherichia coli, ATCC25966; E. coil (ATCC 25966)
Procedure, shortened: as §1

B. subtilis (ATCC 6633) [8] = test: Antibacterial viability (CFU) assay, IC50; format: cell-based; conditions: Bacillus subtilis, ATCC6633, B. subtilis (ATCC 6633)
Procedure, shortened: as §1

[9] = test system: P. aeruginosa (ATCC 27853); test: Antibacterial agar diffusion method (inhibition zone); format: cell-based
Procedure, shortened: as §1

S. aureus (ATCC 25923) [10] = test: as above; format: cell-based
Procedure, shortened: as §1

B. cereus (ATCC 14579) [11] = test: as above; format: cell-based
Procedure, shortened: as §1

[12] = test system: S. epidermidis (ATCC 14990); test: as above; format: cell-based
Procedure, shortened: as §1

[13] = test system: K. pneumonia (ATCC 700603); test: as above; format: cell-based
Procedure, shortened: as §1

E. faecalis (ATCC 29122) [14] = test: as above; format: cell-based
Procedure, shortened: as §1

E. coli (ATCC 25966) [15] = test: as above; format: cell-based; conditions: E. coil (ATCC 25966)
Procedure, shortened: as §1

B. subtilis (ATCC 6633) [16] = test: as above; format: cell-based
Procedure, shortened: as §1

[17] = DPPH radical scavenging assay; conditions: for IC50: 0.03 to 1 mg/mL, 1 h, mean ± SD, triplicate, read-out: IC50 (mM) for DPPH Scavenging Potency
Procedure, shortened: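 Ethanolic DPPH mixed with samples at 0.03 to 1 mg/mL, kept 1 h at room temperature in darkness, then absorbance read at 519 nm against compound-free control. Scavenging percentage computed as (1 − Acompound/Acontrol) × 100; IC50 interpolated from scavenging-versus-concentration plot.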

[18] = test system: CDK2 protein in HCT-116 cells; test: Quantitative determination of CDK2 concentration in HCT-116 cell lysates (Human CDK2 ELISA Kit); format: cell-based; conditions: for downregulation of CDK2 protein expression, fold: as compared to the negative control; for concentration of CDK2 in lysate of treated HCT-116 cells: negative control 7.466 ng/mL
Procedure: First, the commercial Human CDK2 ELISA Kit was used to estimate concentrations of the protein in the lysate of HCT-116 cells treated with 4d and 4k. The results were compared with the positive (cells treated with the reference CDK inhibitor, BMS-265246) and negative control experiments.
The in vitro quantitative measurement of concentration of CDK2 in lysates of HCT-116 cells was carried out using a commercial Human CDK2 ELISA Kit (cat. no.: LS-F22176; LifeSpan Biosciences Inc., Seattle, WA, USA) in the presence or absence of the studied compounds (4d and 4k), following the manufacturer’s instructions. Briefly, standards, blanks or samples were first incubated in the corresponding wells for 90 min at 37 °C. Then, biotinylated detection antibody was added to each well and the plate was incubated for 1 h at 37 °C followed by the addition of an Avidin–Horseradish Peroxidase (HRP) conjugate which binds to the biotin. After incubation of the mixture for 30 min at 37 °C, unbound Avidin–HRP conjugate was washed away and a TMB substrate was then added which reacts with the HRP enzyme, resulting in color development. After that, the reaction was stopped using a sulfuric acid stop solution to terminate the color-development reaction and the optical density of each well was measured using a microplate reader at 450 nm. BMS-265246 was used as the standard drug for inhibition of CDK2. All measurements were performed in triplicate.

SMILES | IC50 [1] [µM] | IC50 (S. enteric (ATCC 43972)) [µM] | IC50 (S. aureus (ATCC 25923) [2]) [µM] | IC50 (B. cereus (ATCC 14579) [3]) [µM] | IC50 [4] [µM] | IC50 [5] [µM] | IC50 (E. faecalis (ATCC 29122) [6]) [µM] | IC50 (E. coli (ATCC 25966) [7]) [µM] | IC50 (B. subtilis (ATCC 6633) [8]) [µM] | IZ (mm) [9] [mm] | IZ (mm) (S. aureus (ATCC 25923) [10]) | IZ (mm) (B. cereus (ATCC 14579) [11]) | IZ (mm) [12] [mm] | IZ (mm) [13] [mm] | IZ (mm) (E. faecalis (ATCC 29122) [14]) | IZ (mm) (E. coli (ATCC 25966) [15]) | IZ (mm) (B. subtilis (ATCC 6633) [16]) | IC50 [17] [mM] | DPPH Radical Scavenging Effenciency (%) at 1 mg/mL [17] | downregulation of CDK2 protein expression, fold [18] [fold] | other results
CC1=C(C(=O)OCc2ccccc2)C(c2ccc(C#N)cc2)C(C#N)=C(N)O1 (stereo not drawn) [4k, 6-Amino-5-cyano-4-(4-cyano-phenyl)-2-methyl-4H-pyran-3-carboxylic acid benzyl ester] | 73.2 ± 3.5 | 75.5 ± 2.42 | 43.9 ± 0.57 | 48.1 ± 1.35 | 50.2 ± 2.48 | 77.8 ± 2.96 | 45.4 ± 0.57 | 80.2 ± 4.31 | 42.1 ± 2.48 | 3.5 ± 0.7 | 5.75 ± 0.35 mm | 7.00 ± 1.41 | 4.50 ± 0.71 | 2.5 ± 0.7 | 5.50 ± 0.71 mm | 4.5 ± 0.71 | 4.50 ± 0.71 | 1.05 ± 0.075 | 40.55 ± 2.19% | 1.6 | concentration of CDK2 in lysate of treated HCT-116 cells [18]: 3.932 ng/mL
COc1cc(C2C(C#N)=C(N)OC(C)=C2C(=O)OCc2ccccc2)cc(OC)c1OC (stereo not drawn) [4d, 6-Amino-5-cyano-2-methyl-4-(3,4,5-trimethoxy-phenyl)-4H-pyran-3-carboxylic acid benzyl ester] | 67.4 ± 1.37 | 65.8 ± 2.29 | 24.4 ± 1.15 | 39.5 ± 0.8 | 26.7 ± 1.15 | 72.63 ± 0.69 | 29.1 ± 2.27 | 88.7 ± 2.52 | 40.3 ± 1.95 | 6.5 ± 0.7 | 9.00 mm and 9.00 ± 1.41 mm | 9.50 ± 0.71 | 8.50 ± 0.71 | 4.5 ± 0.7 | 14.50 mm and 14.50 ± 0.71 mm | 3.5 ± 0.71 | 12.00 ± 1.41 | 0.504 ± 0.032 | 65.25% and 65.25 ± 1.77% | 1.9 | concentration of CDK2 in lysate of treated HCT-116 cells [18]: 4.634 ng/mL
